Measured values reported in EP1801112A1, “Bicyclic pyrimidines and bicyclic 3,4-dihydropyrimidines as inhibitors of cellular proliferation” (Warner-Lambert Company LLC, priority 1998, dated 1999).
Read-outs that look alike come from different tables or passages of the source.

Experiments:
Format in all cases: biochemical
cdk2/cyclinE = cdk2/cyclinE (Homo sapiens, UniProt P24941); test: Cyclin-Dependent Kinase Assay cdk2/cyclinE
Protocol: (§1) Cyclin-Dependent Kinase Assays (cdk2/cyclinE, cdk2/cyclinA, cdc2/cyclinB)
(§2) All components except the ATP were added to the wells, and the plate was placed on a plate mixer for 2 minutes. The reaction was begun by addition of [^32P]ATP, and the plate was incubated at 25°C for 15 minutes. The reaction was terminated by addition of 0.1 mL of 20% TCA. The plate was kept at 4°C for at least 1 hour to allow the substrate to precipitate. The wells were then washed five times with 0.2 mL of 10% TCA and ^32P incorporation determined with a beta plate counter (Wallac Inc., Gaithersburg, MD).

cdc2/cyclinB = cdc2/cyclinB (Homo sapiens, UniProt P06493); test: Cyclin-Dependent Kinase Assay cdc2/cyclinB
cdc2/cyclinB, sequence (P06493 whole entry): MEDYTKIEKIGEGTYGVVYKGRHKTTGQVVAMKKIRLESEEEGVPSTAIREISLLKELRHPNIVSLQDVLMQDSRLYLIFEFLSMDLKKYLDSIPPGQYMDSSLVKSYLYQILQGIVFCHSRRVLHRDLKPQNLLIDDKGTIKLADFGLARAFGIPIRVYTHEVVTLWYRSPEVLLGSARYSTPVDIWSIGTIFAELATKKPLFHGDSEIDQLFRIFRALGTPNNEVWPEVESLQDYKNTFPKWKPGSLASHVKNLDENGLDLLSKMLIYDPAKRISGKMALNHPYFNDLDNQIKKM
cdc2/cyclinB, sequence (P14635 whole entry, further chain): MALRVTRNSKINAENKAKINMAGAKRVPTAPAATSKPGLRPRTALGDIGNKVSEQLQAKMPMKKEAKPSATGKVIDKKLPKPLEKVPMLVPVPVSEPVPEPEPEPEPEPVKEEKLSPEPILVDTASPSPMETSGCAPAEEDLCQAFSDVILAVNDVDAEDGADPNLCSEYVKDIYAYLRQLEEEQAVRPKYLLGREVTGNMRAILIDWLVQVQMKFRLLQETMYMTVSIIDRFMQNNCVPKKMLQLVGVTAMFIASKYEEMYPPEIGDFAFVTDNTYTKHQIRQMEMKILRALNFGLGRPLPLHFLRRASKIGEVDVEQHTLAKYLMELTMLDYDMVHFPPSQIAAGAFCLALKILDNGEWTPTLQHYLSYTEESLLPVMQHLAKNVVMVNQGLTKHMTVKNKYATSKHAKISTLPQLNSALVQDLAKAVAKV
Protocol: as §1, §2

cdk2/cyclinA = cdk2/cyclinA (Homo sapiens, UniProt P24941); test: Cyclin-Dependent Kinase Assay cdk2/cyclinA
Protocol: as §1, §2

cdk4/D = cdk4/D (Homo sapiens, UniProt P11802); test: Cyclin-Dependent Kinase 4 (cdk4) Assay
cdk4/D, sequence (P11802 whole entry): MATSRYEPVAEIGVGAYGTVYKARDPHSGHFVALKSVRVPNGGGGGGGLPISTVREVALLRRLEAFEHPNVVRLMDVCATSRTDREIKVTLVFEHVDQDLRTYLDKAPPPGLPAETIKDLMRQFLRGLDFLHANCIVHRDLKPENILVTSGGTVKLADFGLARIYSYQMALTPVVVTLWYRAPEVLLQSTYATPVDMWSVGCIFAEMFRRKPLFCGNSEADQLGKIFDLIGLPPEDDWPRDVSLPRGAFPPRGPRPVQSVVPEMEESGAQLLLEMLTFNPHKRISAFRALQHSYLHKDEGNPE
cdk4/D, sequence (P24385 whole entry, further chain): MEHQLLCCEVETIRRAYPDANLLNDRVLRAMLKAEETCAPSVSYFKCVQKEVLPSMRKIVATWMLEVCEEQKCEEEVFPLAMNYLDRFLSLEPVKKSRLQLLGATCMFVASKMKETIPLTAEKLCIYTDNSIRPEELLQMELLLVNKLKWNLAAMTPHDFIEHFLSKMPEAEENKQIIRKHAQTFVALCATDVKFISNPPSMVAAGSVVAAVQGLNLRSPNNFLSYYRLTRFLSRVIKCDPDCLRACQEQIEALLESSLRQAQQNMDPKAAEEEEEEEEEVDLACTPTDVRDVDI
Protocol: A typical assay, for instance, measures inhibitory activity against the cyclin D dependent kinase 4 enzyme (cdk4/D). […] The cdk4 assay was carried out as follows.
Cyclin-Dependent Kinase 4 (cdk4) Assay
Enzyme assays for IC50 determinations (Tables 1 and 2) and kinetic evaluation were performed in 96 well filter plates (Millipore MADVN6550). The total volume was 0.1 mL containing a final concentration of 20 mM TRIS (tris[hydroxymethyl]aminomethane), at pH 7.4, 50 mM NaCl, 1 mM dithiothreitol, 10 mM MgCl2, 25 µM ATP containing 0.25 µCi of [^32P]ATP, 20 ng of cdk4, 1 µg of retinoblastoma, and appropriate dilutions of a compound of the present invention. All components except the ATP were added to the wells, and the plate was placed on a plate mixer for 2 minutes. The reaction was started by adding [^32P]ATP and the plate was incubated at 25°C for 15 minutes. The reaction was terminated by addition of 0.1 mL of 20% trichloroacetic acid (TCA). The plate was kept at 4°C for at least 1 hour to allow the substrate to precipitate. The wells were then washed five times with 0.2 mL of 10% TCA and ^32P incorporation was determined with a beta plate counter (Wallac Inc., Gaithersburg, MD).

[1] = molecular target: T1, FGF-1 (flg) receptor tyrosine kinase (Homo sapiens, UniProt P11362); test: FGF Receptor Tyrosine Kinase Assay; conditions: glutamate-tyrosine co-polymer substrate, 50 µM ATP
T1 construct: amplify a fragment of DNA that codes for the intracellular tyrosine kinase domain; made in house; host or cells: SF9 insect cells (baculovirus); crude cell lysate used
T1 sequence (P11362 478-767 limits assumed): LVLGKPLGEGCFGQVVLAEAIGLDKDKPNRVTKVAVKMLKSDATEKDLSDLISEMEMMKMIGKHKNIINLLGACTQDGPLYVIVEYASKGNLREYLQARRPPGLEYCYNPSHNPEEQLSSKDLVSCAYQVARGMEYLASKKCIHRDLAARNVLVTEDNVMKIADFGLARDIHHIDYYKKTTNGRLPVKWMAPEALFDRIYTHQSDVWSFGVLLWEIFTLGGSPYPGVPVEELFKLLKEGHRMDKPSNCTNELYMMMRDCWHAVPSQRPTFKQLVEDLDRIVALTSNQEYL
Protocol: PDGF and FGF Receptor Tyrosine Kinase Assays
PCR primers were designed to amplify a fragment of DNA that codes for the intracellular tyrosine kinase domain. The fragment was inserted into a baculovirus vector, cotransfected with AcMNPV DNA, and the recombinant virus isolated. SF9 insect cells were infected with the virus to overexpress the protein, and the cell lysate was used for the assay. Assays were performed in 96-well plates (100 µL/incubation/well), and conditions were optimized to measure the incorporation of ^32P from γ^32P-ATP into a glutamate-tyrosine co-polymer substrate. Briefly, to each well was added 82.5 µL of incubation buffer containing 25 mM Hepes (pH 7.0), 150 mM NaCl, 0.1% Triton X-100, 0.2 mM PMSF, 0.2 mM Na3VO4, 10 mM MnCl2, and 750 µg/mL of Poly (4:1) glutamate-tyrosine followed by 2.5 µL of inhibitor and 5 µL of enzyme lysate (7.5 µg/µL FGF-TK or 6.0 µg/µL PDGF-TK) to initiate the reaction. […] The reaction was terminated by the addition of 100 µL of 30% trichloroacetic acid (TCA) containing 20 mM sodium pyrophosphate and precipitation of material onto glass fiber mats (Wallac). […] Nonspecific activity was defined as radioactivity retained on the filters following incubation of samples with buffer alone (no enzyme). Specific enzymatic activity (enzyme plus buffer) was defined as total activity minus nonspecific activity. […]

[2] = retinoblastoma substrate, read-out: IC50 (µM) cdk2/E
[3] = 25 µM ATP, retinoblastoma substrate, read-out: IC50 (µM) cdk4/D
[4] = retinoblastoma substrate, read-out: IC50 (µM) cdkl/B
[5] = retinoblastoma substrate, read-out: IC50 (µM) cdk2/A

| Compound | IC50 (cdk2/cyclinE) [µM] | IC50 (cdc2/cyclinB) [µM] | IC50 (cdk2/cyclinA) [µM] | IC50 (cdk4/D) [µM] | also measured |
| --- | --- | --- | --- | --- | --- |
| CC(C)N1C(=O)NCc2cnc(Nc3ccc(-n4cccn4)cc3)nc21 [Example 25, 1-Isopropyl-7-[4-(pyrazol-1-yl)phenylamino]-3,4-dihydro-pyrimido[4,5-d]pyrimidin-2(1H)-one; compound with trifluoroacetic acid] | 10 | 36.5 | 2.31 |  |  |
| CC(C)N1C(=O)NCc2cnc(Nc3ccc(N4CCC(O)CC4)cc3)nc21 [Example 23, 7-[4-(4-Hydroxypiperidin-1-yl)phenylamino]-1-isopropyl-3,4-dihydropyrimido[4,5-d]pyrimidin-2(1H)-one] | 16.8 | > 40 | 4.39 |  |  |
| COc1ccc(Nc2ncc3cnc(=O)n(C4CCCC4)c3n2)cc1 [Example 37, 1-Cyclopentyl-7-(4-methoxyphenylamino)pyrimido[4,5-d]pyrimidin-2(1H)-one] | 0.9 | 4.76 | 0.4 | 0.22 |  |
| O=c1ncc2cnc(Nc3ccc(N4CCCCC4)cc3)nc2n1C1CCCC1 [Example 38, 1-Cyclopentyl-7-[4-(piperidin-1-yl)phenylamino]pyrimido[4,5-d]pyrimidin-2(1H)-one] |  |  |  |  | IC50 (cdk2/cyclinE; [2]): 2.78 µM; IC50 (cdk4/D; [3]): 0.15 µM; IC50 (cdc2/cyclinB; [4]): 35.2 µM; IC50 (cdk2/cyclinA; [5]): 0.77 µM |
| CN(C)C1CCN(c2ccc(Nc3ncc4cnc(=O)n(C)c4n3)cc2)CC1 [Example 46, 7-{4-[4-(Dimethylamino)piperidin-1-yl]phenylamino}-1-methyl-pyrimido[4,5-d]pyrimidin-2(1H)-one] |  | > 40 | > 40 | > 40 | IC50 [1]: 22.6 µM |
| CN1C(=O)NCc2cnc(Nc3ccc(N4CCC(N(C)C)CC4)cc3)nc21 [Example 30, 7-{4-[4-(Dimethylamino)piperidin-1-yl]phenylamino}-1-methyl-3,4-dihydropyrimido[4,5-d]pyrimidin-2(1H)-one; compound with trifluoroacetic acid] |  | > 40 | > 40 | 18.2 |  |
| CC(C)N1C(=O)NCc2cnc(Nc3ccc(N4CCC(CCCN5CCOCC5)CC4)cc3)nc21 [Example 26, 1-Isopropyl-7-{4-[4-(3-(morpholin-1-yl)propyl)piperidin-1-yl]phenylamino}-3,4-dihydro-pyrimido[4,5-d]pyrimidin-2(1H)-one] |  |  |  |  | inhibition at 40 µM (cdk4/D; read-out: % Inhibition at 40 µM cdk4/D): 47% |
| COc1ccc(Nc2ncc3c(n2)N(C2CCCC2)C(=O)NC3)cc1 [Example 9, 1-Cyclopentyl-7-(4-methoxyphenylamino)-3,4-dihydro-pyrimido[4,5-d]pyrimidin-2(1H)-one] |  |  |  | 5.75 | IC50 [1]: 0.36 µM |
| CN1C(=O)NCc2cnc(Nc3ccc(-n4cccn4)cc3)nc21 [Example 31, 1-Methyl-7-[4-(pyrazol-1-yl)phenylamino]-3,4-dihydro-pyrimido[4,5-d]pyrimidin-2(1H)-one; compound with trifluoroacetic acid] |  | > 40 | > 40 |  |  |
| CC(C)N1C(=O)NCc2cnc(Nc3ccc(N4CCC(N(C)C)CC4)cc3)nc21 [Example 24, 7-{4-[4-(Dimethylamino)piperidin-1-yl]phenylamino}-1-isopropyl-3,4-dihydro-pyrimido[4,5-d]pyrimidin-2(1H)-one; compound with trifluoroacetic acid] | 34 | > 40 | 12.3 |  |  |
| CN1C(=O)NCc2cnc(Nc3ccc(N4CCC(O)CC4)cc3)nc21 [Example 29, 7-[4-(4-Hydroxypiperidin-1-yl)phenylamino]-1-methyl-3,4-dihydropyrimido[4,5-d]pyrimidin-2(1H)-one; compound with trifluoroacetic acid] |  | > 40 | > 40 | > 40 |  |
| CN1CCN(c2ccc(Nc3ncc4c(n3)N(C)C(=O)NC4)cc2)CC1 [Example 28, 1-Methyl-7-[4-(4-methylpiperazin-1-yl)phenylamino]-3,4-dihydropyrimido[4,5-d]pyrimidin-2(1H)-one; compound with trifluoroacetic acid] |  | > 40 | > 40 |  |  |
| CN1CCN(c2ccc(Nc3ncc4cnc(=O)n(C)c4n3)cc2)CC1 [Example 45, 1-Methyl-7-[4-(4-methylpiperazin-1-yl)phenylamino]pyrimido[4,5-d]pyrimidin-2(1H)-one] |  | > 40 | > 40 | 16.2 |  |
| O=C1NCc2cnc(Nc3ccc(N4CCC(CCCO)CC4)cc3)nc2N1C1CCCC1 [Example 20, 1-Cyclopentyl-7-{4-[4-(3-hydroxypropyl)piperidin-1-yl]phenylamino}-3,4-dihydro-pyrimido[4,5-d]pyrimidin-2(1H)-one] | 5.35 | > 40 | 2.72 | 0.42 |  |
| O=c1ncc2cnc(Nc3ccc(N4CCC(O)CC4)cc3)nc2n1C1CCCC1 [Example 33, 1-Cyclopentyl-7-[4-(4-hydroxypiperidin-1-yl)phenylamino]pyrimido[4,5-d]pyrimidin-2(1H)-one] |  |  |  |  | IC50 (cdk2/cyclinE; [2]): 4.2 µM; IC50 (cdk4/D; [3]): 0.038 µM; IC50 (cdc2/cyclinB; [4]): 9.76 µM; IC50 (cdk2/cyclinA; [5]): 0.98 µM |
| CCN(CC)CCOc1ccc(Nc2ncc3c(n2)N(C2CCCC2)C(=O)NC3)cc1C [Example 13, 1-Cyclopentyl-7-{3-methyl-4-[2-(diethylamino)ethoxy]phenylamino}-3,4-dihydro-pyrimido[4,5-d]pyrimidin-2(1H)-one] |  |  |  | 0.3 | IC50 [1]: 0.05 to 0.5 µM |
| CC(C)n1c(=O)ncc2cnc(Nc3ccc(-n4cccn4)cc3)nc21 [Example 42, 1-Isopropyl-7-[4-(pyrazol-1-yl)phenylamino]pyrimido[4,5-d]pyrimidin-2(1H)-one] | > 40 | > 40 | 5.81 | 3.9 |  |
| Cn1c(=O)ncc2cnc(Nc3ccc(-n4cccn4)cc3)nc21 [Example 47, 1-Methyl-7-[4-(pyrazol-1-yl)phenylamino]pyrimido[4,5-d]pyrimidin-2(1H)-one] |  | > 40 | > 40 | > 40 |  |
| CCN(CC)CCOc1ccc(Nc2ncc3cnc(=O)n(C4CCCC4)c3n2)cc1C [Example 34, 1-Cyclopentyl-7-{3-methyl-4-[2-(diethylamino)ethoxy]-phenylamino}pyrimido[4,5-d]pyrimidin-2(1H)-one] | 3.15 | 7.51 | 3.22 | 0.079 |  |
